Earlier results, collected in US10481151B2, “Isolation of pulmonary arterial endothelial cells from patients with pulmonary vascular disease and uses thereof” (Allegheny-Singer Research Institute, priority 2012, dated 2019).

details: short half life, so the drug must be administered intravenously over a prolonged time frame

half life | SMILES
about 6 minutes | CCCCC[C@H](O)CC[C@@H]1[C@H]2Cc3cccc(OCC(=O)O)c3C[C@H]2C[C@H]1O [treprostinil]
about 6 minutes | CC#CCC(C)[C@H](O)/C=C/[C@@H]1[C@H]2C/C(=C/CCCC(=O)O)C[C@H]2C[C@H]1O (stereo partly drawn) [iloprost]
about 6 minutes | CCCCC[C@H](O)/C=C/[C@@H]1[C@H]2C/C(=C/CCCC(=O)O)O[C@H]2C[C@H]1O [epoprostenol]
